Consider eight molecules from US8097624B2, “Cycloalkyl derivatives of 3-hydroxy-4-pyridinones” (Apotex Inc., priority 2006, dated 2012).

Counter-ions that a name gives are not always drawn. Like-named read-outs stand apart in the source and are kept apart here.

Data set [1] is described as follows: Metal complexation constants, Fe system (spectrophotometric titration; pM by Hyss). The following applies: for Log β3: Fe(III) overall complexation constant; for pFe^3+: total iron 10^−6 M, ligand 10^−5 M, pH 7.4, calculated from experimental pKa and complexation constants. The format is binding. As to the method:
Compounds of this invention are designed to improve properties to known deferiprone analogues. […]. The definition of pFe^3+ used herein is the concentration of ferric ion in solution when the total amount of iron equals 10^−6 M and the concentration of ligand is 10^−5 M and pH is 7.4. It is calculated using experimental determined pKa and metal complexation constants using Hyperquad software (Version 2.1, Peter Gans, University of Leeds). The lowering of the pKa value of the C3 phenolic OH to less than 8.8 ensures that a higher pFe^3+ value when combined with a favorable complexation constant β3. The concept of complexation is detailed below.
The stepwise and overall complexation constants of a bidentate ligand such as 3-hydroxy-4-pyridinone follow: Fe(III)+Ligand→Fe[Ligand]1K1 Fe[Ligand]1+Ligand→Fe[Ligand]2K2 Fe[Ligand]2+Ligand→Fe[Ligand]3K3 Complexation constant β3=K1.K2.K3
Stepwise formation constants for M^n+-ligand systems were determined by spectrophotometric titration when metal complexes have a strong absorbance in the visible region due to ligand to metal charge transfer. In a typical experiment, the sample solution was prepared according to the following method: Apo6619 (10.7 mg) was weighed into an 80-ml beaker, followed by the addition of 0.1 M NaCl (50 ml). The mixture was sonicated for 10 minutes to give a clear colorless solution. Iron stock solution (atomic absorption standard, Aldrich, 496 μl, 8.93E-06 moles) was pipetted into the solution followed by the addition of 1.000 N NaOH (137 μl). The molar ratio between the total iron and the total Apo6619 was 1:5.4. The mixture was allowed to equilibrate at room temperature overnight. Nitrogen was allowed to bubble through the solution. 1.000 N Hydrochloric acid (3 ml) was then added to the solution to give pH 1.5. The solution was allowed to equilibrate at 22° C. for 3 hours.
A sipper system was used for the circulation of the sample solution between the beaker and the flow cell.
The sample solution was titrated against standard NaOH solutions at 22° C. to reach pH 6.89. After each addition of base the solution was allowed to equilibrate until a constant pH reading was reached. The pH and the UV-Vis spectrum were recorded for each measurement. For each measurement enough base was added so that there was a slight increase in the absorbance of the spectrum. The solution was titrated until there was no obvious increase in the spectra after several subsequent additions of base. Altogether 64 measurements were taken to finish the experiment.
[…]; pM^n+ is defined as −log [M(H2O)m]^n+ at physiological conditions, i.e.: pH 7.4, a ligand concentration of 10 μM, and a metal concentration of 1 μM.
To calculate pM^n+ for a MLn system, βn and pKa values are needed (βn are the formation constants for M^n++n L^− ? MLn; pKa are the equilibrium constants for L^−+n H^+ ? LHn^(n−1)+). The pM^n+ can be calculated by using Hyss software (Hyperquad Stimulation and Speciation software: HYSS2© 2000 Protonic Sofware).

The nature of data set [2]: pKa determination by potentiometric or spectrophotometric titration. The format is physicochemical. The conditions noted are these: titration in 0.1 M NaCl at 22° C. The protocol: The pKa values of ligands were determined by potentiometric titration when a ligand concentration greater than 1×10^−2 M in water could be prepared. In a typical experiment, the sample solution (2.67×10^−2 M) was prepared by the following method: Apo6619 (92.6 mg) was weighed into a 25-ml beaker, followed by the addition of 0.1 M NaCl (15 ml). The mixture was sonicated for 10 minutes to give a clear colorless solution. Nitrogen gas was then allowed to bubble through the solution. 1.000 N Hydrochloric acid (624 μl, 1.5 equivalent) was added to the solution to give pH 1.88. The solution was allowed to equilibrate at 22° C. for 60 minutes.
The solution was then titrated against 1.000 N NaOH at 22° C. to reach pH 11.8. For each addition of base, the solution was allowed to equilibrate until a constant pH reading was reached. The volume of the base added and the pH reading were recorded for each measurement. 137 measurements were taken to finish the experiment.
The data set of pH vs. base volume was analyzed using Hyperquad 2000 (Version 2.1, Peter Gans, University of Leeds).
The pKa values of ligands can be determined by spectrophotometric titration when both the conjugated acid and base absorb in the UV-Visible region. In a typical experiment, the sample solution was prepared by the following method: Apo6617 (0.792 mg) was weighed into an 80-ml beaker, followed by the addition of 0.1 M NaCl (50 ml). The mixture was sonicated for 5 minutes to give a clear colorless solution. Nitrogen gas was allowed to bubble through the solution. 1.000 N NaOH (50 μl) was added to give pH 10.9. The solution was allowed to equilibrate at 22° C. for 1 hour. A sipper system was used for the circulation of the sample solution between the beaker and the flow cell.
The sample solution was titrated against standard hydrochloric acid solutions at 22° C. to reach pH 1.40. After each addition of acid the solution was allowed to equilibrate until a constant pH reading was reached. The pH and the UV-Vis spectrum were recorded for each measurement. The peak wavelengths of the deprotonated species (L^−), the neutral species (LH), and the protonated species (LH2^+) were 314 nm, 281 nm, and 249 nm, respectively. In the region of pH>6, after each addition of acid there was a slight decrease in the absorbance at 314 nm and a slight increase at 281 nm in each spectrum, whereas in the region of pH<5, after each addition of acid there was a slight decrease in the absorbance at 281 nm and a slight increase at 249 nm in each spectrum. The solution was titrated until there was no obvious change in the spectra after several subsequent additions of acid. 116 measurements were taken to finish the experiment.
The resulting data set was then analyzed using pHAB (Peter Gans, University of Leeds).

The nature of data set [3]: Distribution coefficient determination (D7.4), 1-octanol / MOPS buffer. The data set is classed as physicochemical. The conditions noted are these: 1-octanol / MOPS buffer pH 7.4. The protocol:
MOPS buffer (50 mM, pH=7.4) and 1-octanol were used as the aqueous phase and the organic phase, respectively, for distribution coefficient determinations. The MOPS buffer and 1-octanol were pre-saturated with each other before use.
In a typical experiment, an organic stock solution of Apo6618 (1-cyclopropyl-3-hydroxy-6-methyl-4-oxo-1,4-dihydro-pyridine-2-carboxylic acid cyclopropylamide) was prepared by weighing out 0.50 mg of the compound into a 10-mL volumetric flask and bringing to volume with 1-octanol. The solution was then sonicated for 60 minutes so that the sample could dissolve completely. The concentration of the stock solution was calculated as C^0org=2.0×10^−4 M. The organic standard solution of Apo6618 with 2.0×10^−5 M was prepared in a 10-mL volumetric flask by 10 times dilution of the stock solution with 1-octanol. The sample solution was prepared in a 10-mL volumetric flask. The stock sample solution (3 ml) was pipetted into the flask followed by the addition of MOPS buffer (3 ml). The standard and sample solutions were then vortexed for 2 hours. After vortexing, the solutions were transferred to test tubes and centrifuged at 4000 rpm for 15 minutes. UV-Vis spectra were recorded for the standard solution and the organic (top) phase of the sample solution at 22° C. The distribution coefficient, D7.4, was calculated using the following equation: D7.4=[Aorg/(C^0orgεorg−Aorg)]×(Vaqu/Vorg)
Where εorg=the molar extinction coefficient of the peak wavelength (λmax) obtained from the UV-Vis spectrum of the organic standard solution; Aorg=absorbance of the organic phase in the sample solution at the same λmax; C^0org=the concentration of the stock solution; Vaqu=the volume of MOPS buffer in the sample solution; Vorg=the volume of the stock solution in the sample solution.

The conditions of data set [4]: U.S. Pat. No. 6,335,353; cited from earlier work.
The conditions of data set [5]: cited from earlier work.
Data set [6] can be described thus: Redox potentials of iron complexes by cyclic voltammetry. The data set is classed as physicochemical. The following applies: glassy carbon working electrode, 2.0 mM, pH 7.4; for E1/2 / Ep^ox / Ep^red: vs Ag/AgCl.

For the molecule `Cc1cc(=O)c(O)c(C(=O)NC2CC2)n1C1CC1` [Apo6618, 1-Cyclopropyl-3-hydroxy-6-methyl-4-oxo-1,4-dihydro-pyridine-2-carboxylic Acid Cyclopropylamide], in data set [1], the “Log β3” value turned out to be 33.6 and the “pFe^3+” value is given as 20.5. Besides, in data set [2], the “pKas (higher value, phenolic C3 OH)” value came out at 8.6 and the “pKas (lower value, LH2+)” value is 2.5. In data set [3], this molecule showed a D7.4 of 0.331.

On to `Cc1cc(=O)c(O)c(C(=O)NC2CCCC2)n1C` [Apo6620, N-cyclopentyl-3-hydroxy-1,6-dimethyl-4-oxo-1,4-dihydro-pyridine-2-carboxamide], for which the melting point was 289.3 °C (dec.). In addition, in data set [1], the “Log β3” value was 33.8 and the “pFe^3+” value is on record as 20.3. Moreover, in data set [2], the “pKas (higher value, phenolic C3 OH)” value was determined as 8.7 and the “pKas (lower value, LH2+)” value amounted to 2.7. In data set [3], this molecule registered a D7.4 of 0.78.

Turning to `Cc1cc(=O)c(O)c(C(=O)NC2CCCCC2)n1C` [Apo6621, 3-Hydroxy-1,6-dimethyl-4-oxo-1,4-dihydro-pyridine-2-carboxylic Acid Cyclohexylamide], in data set [1], the “Log β3” value amounted to 34.3 and the “pFe^3+” value is listed as 20.9. Moreover, in data set [2], the “pKas (higher value, phenolic C3 OH)” value is on record as 8.7 and the “pKas (lower value, LH2+)” value was 2.5. In data set [3], this molecule had a D7.4 of 2.2.

On to `Cc1cc(=O)c(O)c(C(=O)NC2CCC2)n1C` [Apo6622, N-cyclobutyl-3-hydroxy-1,6-dimethyl-4-oxo-1,4-dihydropyridine-2-carboxamide], for which, in data set [1], the “Log β3” value is 33.9 and the “pFe^3+” value is 20.8. Moreover, in data set [2], the “pKas (higher value, phenolic C3 OH)” value was found to be 8.6 and the “pKas (lower value, LH2+)” value was 2.8. The molecule further registered a D7.4 in data set [3] of 0.357.

For `CNC(=O)c1c(O)c(=O)cc(C)n1C` [CP502, 1,6-Dimethyl-3-hydroxy-4(1H)-pyridinone-2-carboxy-(N-methyl)-amide hydrochloride, reference compound], the “O-glucuronidation at the C3 oxygen” value in data set [4] is “effectively blocked the O-glucuronidation”. Moreover, in data set [1], the “Log β3” value was 33.6 and the “pFe^3+” value is 20.9. In data set [2], the “pKas (higher value, phenolic C3 OH)” value worked out at 8.5 and the “pKas (lower value, LH2+)” value is 2.7. This molecule also gave a D7.4 in data set [3] of 0.04.

Take `CC(=O)N([O-])CCCCCNC(=O)CCC(=O)N([O-])CCCCCNC(=O)CCC(=O)N([O-])CCCCCN.[Fe+3]` [Fe(DFO)]: in data set [5] (vs Ag/AgCl, Crumbliss et al, Inorganic Chemistry 2003), the E1/2 literature value was −688 mV. In addition, in data set [6], the ΔEp is on record as 112 mV, the E1/2 is given as −698 mV, the “Ep^ox” value was −642 mV and the “Ep^red” value is on record as −754 mV.

On to `Cc1c([O-])c(=O)ccn1C.Cc1c([O-])c(=O)ccn1C.Cc1c([O-])c(=O)ccn1C.[Fe+3]` [Fe(deferiprone)3], for which, in data set [6], the ΔEp was 107 mV, the E1/2 is −834 mV, the “Ep^ox” value was −780 mV and the “Ep^red” value was −887 mV.

In the case of “Fe-transferrin: iron bound to transferrin in human blood”, the E1/2 in data set [5] (vs. Ag/AgCl) is −720 mv; in data set [5] (vs. NHE), −500 mv.
